# Reference: article PMC7073886, “Structure–Bioactivity Relationships of Lapatinib Derived Analogs against Schistosoma mansoni” (ACS Medicinal Chemistry Letters, 2020)
# “Also recorded” adds a separate entry of the source.
# Legend:
# [1] = Human liver microsomal Clint; assay type: in vitro ADME; settings: human liver microsomes, intrinsic clearance; read-out: HLM Clint
# Rat hepatocyte Clint = assay type: in vitro ADME; settings: rat hepatocytes, intrinsic clearance; read-out: RH CLint
# adult S. mansoni = experiment: Phenotypic screen of adult S. mansoni worms, severity scores and descriptors; assay type: cell-based, Schistosoma mansoni; settings: for Descriptors (10 µM) 1 h / Severity Scores (10 μM) 1 h / Descriptors (10 µM) 5 h / Severity Scores (10 μM) 5 h / Severity Scores (10 μM) 24 h / Severity Scores (10 μM) 48 h / Descriptors (10 µM) 24 h / Descriptors (10 µM) 48 h: adult S. mansoni; for Descriptors (10 µM) 1 h / Descriptors (10 µM) 5 h / Descriptors (10 µM) 24 h / Descriptors (10 µM) 48 h: phenotypic descriptors; for Severity Scores (10 μM) 1 h / Severity Scores (10 μM) 5 h / Severity Scores (10 μM) 24 h / Severity Scores (10 μM) 48 h: scale 0 (no activity) to 4 (maximal activity); for bioactivity against adult S. mansoni: adult schistosomes; for Severity Scores (10 μM) 1 h / Severity Scores (10 μM) 5 h / Severity Scores (10 μM) 24 h / Severity Scores (10 μM) 48 h / bioactivity against adult S. mansoni: 10 μM
# Description: Because the schistosome parasite can present multiple and dynamic phenotypic responses to chemical insult,[16] we employ a constrained nomenclature of descriptors to describe the changes in the parasite as a function of time and concentration (e.g., motility, density, and shape; and in the case of the adult parasite, an inability to adhere to the bottom of the assay dish). These descriptors are converted into severity scores on a scale of 0 (green)–4 (severest/red) that allow for partially quantitative comparisons of compound effects.[1]−[19] […] The descriptors themselves and their respective scores are detailed in the Supporting Information, Table S1. Severity score data are presented in the results (with the corresponding descriptors detailed in the Supporting Information, Tables S2–S8), and eight new analogs developed and synthesized in support of this effort are described. Finally, absorption, distribution, metabolism and excretion (ADME) data of all compounds presented in this work are reported in the Supporting Information, Table S15.
# Table S1. Descriptors and associated severity scores used for S. mansoni adults.
# R (rounded or shape altered 1
# On sides (adults unable to 1
# Shrunk (adults are shorter 1
# surface (tegument) of adults)
# dfailed to create analytical method
# Maintenance of the Schistosoma mansoni life cycle (NMRI isolate), the preparation of adult worms (≥ 42-
# days-old), and their co-incubation with test compounds were as described.7-9 Phenotypic responses were
# visually recorded using a constrained nomenclature and converted to severity scores on a scale from zero
# (no activity) to 4 (maximal activity).8, 9 Use of hamsters for maintaining the S. mansoni life-cycle was
# approved by the Institutional Animal Care and Use Committee of the University of California San Diego.
# The human myelomonocytic cell line THP -1 was grown at 37 °C and 5% CO2 in RPMI-1640 supplemented
# with 10% iFBS, 2 mM glutamate, 100 U/mL penicillin and […] streptomycin.
# Drug toxicity to HepG2 cells .10 HepG2 cells line were obtained from the American Type Culture
# Collection and cultured in Minimal Essential Medium (MEM) supplemented with 0.19% sodium
# bicarbonate, 10% Fetal Bovine Serum, 2 mM L -glutamine, 0.1 mM MEM non-essential amino, 0.009
# mg/mL insulin, 1.76 mg/mL bovine serum albumin. The viability of the cells was measured using the MTT
# (thiazolyl blue reduction) method. Briefly, ninety -six-well plates were seeded with 2.5 × 10^4 cells/well in
# 170 ml of culture medium and incubated overnight in 5% CO 2 at 37 °C. Cells were exposed to different
# experimental compounds in DMSO. After 48 hours incubation, the viability of the cells was assessed using
# MTT (thiazolyl blue reduction) as a dose response assay (11 two -fold serial dilutions) to obtain a calculated
# IC50 determination. 4-Azaindolo[2,1-b]quinazoline-6,12-dione is used as a toxicity positive control and
# each assay plate includes the following 3 additional controls: a) background control: no cells and no drug
# was added, b) target control: cells added but no drugs, and c) DMSO control: same as the target control
# except the culture media contains 0.6% DMSO. Absorbance was determined in all wells using a Perkin
# Elmer, Ensight plate reader. The fifty percent inhibitory concentrations (IC50’s) were determined using
# GraphPad Prism nonlinear regr ession (sigmoidal dose -response, variable slope) equation .
# ADME Experiment Protocols
# Aqueous pH 7.4 Solubility. Compounds were dried down from 10 mM DMSO solutions using centrifugal
# evaporation technique. Phosphate buffer (0.1 M pH 7.4) was added and StirStix were inserted in the glass
# vials, with shaking then performed at a constant temperature of 25 °C for 20 -24 h. This step was followed
# by double centrifugation with a tip wash in between, to ensure that no residues of the dried compounds
# interfere. The solutions were diluted before analysis and quantification using LC/MS/MS was performed.
# [2] = Log D7.4 shake-flask octanol-water; assay type: physicochemical; settings: pH 7.4
# Description: Log D7.4. Shake-flask octanol-water distribution coefficient was determined at pH 7.4 (Log D7.4). The aqueous solution used is 10 mM sodium phosphate pH 7.4 buffer. The method has been validated for Log D7.4 ranging from -2 to 5.0.
# Human Plasma Protein Binding (PPB). PPB was determined using equilibrium dialysis (RED device) to separate free from bound compound. The amount of compound in plasma (10 µM initial concentration) and in dialysis buffer (pH 7.4 phosphate buffer) was measured by LC-MS/MS after equilibration at 37 °C in a dialysis chamber. The fraction unbound (fu) is reported.
# Human Liver Microsomal Clint. In vitro intrinsic clearance was determined from human liver microsomes using a standard approach.11 Following incubation and preparation, the samples were analyzed using […]
# Rat Hepatocyte Clint. In vitro intrinsic clearance was determined from rat hepatocytes using a standard approach.11 Following incubation and preparation, the samples were analyzed using LC/MS/MS. Refined […]
# Calculated LogP and LogD values. Both LogP and LogD predictions are based on a modified version of the method12 where the predicted partition coefficients are composed of the molecules’ atomic increments.
# General Chemistry. All starting materials were commercially obtained and were used without further purification, unless specified. Reaction solvents were purified by passage through alumina columns on a purification system manufactured by Innovative Technology (Newburyport, MA). NMR spectra were obtained on Varian NMR systems, operating at 400 or 500 MHz for 1 H acquisitions. LCMS analysis was performed using a Waters AllianceHT e2795 reverse phase HPLC (Waters SunFire C18 4.6 × 50 mm, 3.5 μm column), with a Waters 2996 photodiode array detector scanning from 210 nm to 600 nm, and Waters Micromass ZQ detector (electrospray ionization). Where required, final compounds were purified by preparative reverse phase HPLC (columns Waters Symmetry RP8 30 × 50 mm, 5 μm column, or OBD RP18 30 × 50 mm, 5 μm), with a single wavelength UV−visible detector and Waters Micromass ZQ (electrospray ionization).
# [3] = Aqueous pH 7.4 solubility; assay type: physicochemical; settings: for solubility: aqueous buffer, thermodynamic from solid, phosphate buffer pH 7.4, 25 °C, 20-24 h, read-out: aq sol (aqueous solubility)
# [4] = Human plasma protein binding (equilibrium dialysis); assay type: in vitro ADME; settings: pH 7.4, 10 µM, 37 °C, read-out: human PPB (plasma protein binding) (converted)
smiles,measurement,setting,value
COC(=O)C1CCCN1c1ncc(-c2ccc3c(Nc4cnccn4)ccnc3c2)cn1 (stereo not shown) [3d],microsomal CLint,[1],220 µL/min/mg
same,hepatocyte CLint,Rat hepatocyte Clint,230 µL/min/1e6 cells
same,Descriptors (10 µM) 1 h,adult S. mansoni,none
same,Severity Scores (10 μM) 1 h,adult S. mansoni,0
same,Descriptors (10 µM) 5 h,adult S. mansoni,none
same,Severity Scores (10 μM) 5 h,adult S. mansoni,0
same,Severity Scores (10 μM) 24 h,adult S. mansoni,3
same,Severity Scores (10 μM) 48 h,adult S. mansoni,4
same,bioactivity against adult S. mansoni,adult S. mansoni,"bioactivity after 24 h, progressing to the severest response by 48 h"
same,logD,[2],3.5
CN(CCNc1ncc(-c2ccc3c(Nc4cnccn4)ccnc3c2)cn1)C(=O)OC(C)(C)C [3e],microsomal CLint,[1],> 300 µL/min/mg
same,hepatocyte CLint,Rat hepatocyte Clint,> 300 µL/min/1e6 cells
same,Descriptors (10 µM) 1 h,adult S. mansoni,none
same,Severity Scores (10 μM) 1 h,adult S. mansoni,0
same,Descriptors (10 µM) 5 h,adult S. mansoni,none
same,Severity Scores (10 μM) 5 h,adult S. mansoni,0
same,Descriptors (10 µM) 24 h,adult S. mansoni,none
same,Severity Scores (10 μM) 24 h,adult S. mansoni,0
same,Severity Scores (10 μM) 48 h,adult S. mansoni,4
same,bioactivity against adult S. mansoni,adult S. mansoni,maximal phenotypic response after 48 h
same,logD,[2],4.1
CCN1CCN(c2ncc(-c3ccc4c(Nc5cnccn5)ccnc4c3)cn2)CC1 [4b],microsomal CLint,[1],> 300 µL/min/mg
same,hepatocyte CLint,Rat hepatocyte Clint,45 µL/min/1e6 cells
same,Descriptors (10 µM) 1 h,adult S. mansoni,none
same,Severity Scores (10 μM) 1 h,adult S. mansoni,0
same,Severity Scores (10 μM) 5 h,adult S. mansoni,1
same,Severity Scores (10 μM) 24 h,adult S. mansoni,1
same,Descriptors (10 µM) 48 h,adult S. mansoni,"S, on sides"
same,Severity Scores (10 μM) 48 h,adult S. mansoni,2
same,bioactivity against adult S. mansoni,adult S. mansoni,activity after 5 h
same,logD,[2],3.5
CCCN1CCCN(c2ncc(-c3ccc4c(Nc5cnccn5)ccnc4c3)cn2)CC1 [4f],microsomal CLint,[1],> 300 µL/min/mg
same,hepatocyte CLint,Rat hepatocyte Clint,32 µL/min/1e6 cells
same,Descriptors (10 µM) 1 h,adult S. mansoni,none
same,Severity Scores (10 μM) 1 h,adult S. mansoni,0
same,Descriptors (10 µM) 5 h,adult S. mansoni,none
same,Severity Scores (10 μM) 5 h,adult S. mansoni,0
same,Descriptors (10 µM) 24 h,adult S. mansoni,none
same,Severity Scores (10 μM) 24 h,adult S. mansoni,0
same,Descriptors (10 µM) 48 h,adult S. mansoni,none
same,Severity Scores (10 μM) 48 h,adult S. mansoni,0
same,logD,[2],3.3
COc1ccc(Nc2ccnc3cc(-c4cnc(N5CCCN(C)CC5)nc4)ccc23)cc1Cl [5d],microsomal CLint,[1],120 µL/min/mg
same,hepatocyte CLint,Rat hepatocyte Clint,9 µL/min/1e6 cells
same,solubility,[3],6 µM
same,decrease in aqueous solubility compared with 3,[3]; relative to 3,7 fold
same,Severity Scores (10 μM) 1 h,adult S. mansoni,1
same,Severity Scores (10 μM) 5 h,adult S. mansoni,3
same,Severity Scores (10 μM) 24 h,adult S. mansoni,4
same,Severity Scores (10 μM) 48 h,adult S. mansoni,4
same,bioactivity against adult S. mansoni,adult S. mansoni,severe phenotypic responses
same,logD,[2],2.7
c1cc(-c2ccc3c(c2)ncc2c4ccccc4[nH]c32)cc(N2CCOCC2)c1 [6a],microsomal CLint,[1],57 µL/min/mg
same,hepatocyte CLint,Rat hepatocyte Clint,24 µL/min/1e6 cells
same,solubility,[3],0.1 µM
same,Descriptors (10 µM) 1 h,adult S. mansoni,none
same,Severity Scores (10 μM) 1 h,adult S. mansoni,0
same,Severity Scores (10 μM) 5 h,adult S. mansoni,1
same,Descriptors (10 µM) 24 h,adult S. mansoni,none
same,Severity Scores (10 μM) 24 h,adult S. mansoni,0
same,Severity Scores (10 μM) 48 h,adult S. mansoni,1
same,bioactivity against adult S. mansoni,adult S. mansoni,minimal bioactivity after 5 h
same,logD,[2],5.1
CN1CCCN(c2ncc(-c3ccc4c(c3)ncc3c5ccccc5[nH]c43)cn2)CC1 [6b],microsomal CLint,[1],110 µL/min/mg
same,hepatocyte CLint,Rat hepatocyte Clint,19 µL/min/1e6 cells
same,solubility,[3],35 µM
same,Descriptors (10 µM) 1 h,adult S. mansoni,none
same,Severity Scores (10 μM) 1 h,adult S. mansoni,0
same,Severity Scores (10 μM) 5 h,adult S. mansoni,1
same,Severity Scores (10 μM) 24 h,adult S. mansoni,1
same,Severity Scores (10 μM) 48 h,adult S. mansoni,4
same,bioactivity against adult S. mansoni,adult S. mansoni,minimal bioactivity after 5 h; also recorded: potent activity after 48 h
CCN1CCCN(c2ncc(-c3cc4nccc(Nc5cnccn5)c4cc3C)cn2)CC1 [8c],fraction unbound,[4],0.16
same,hepatocyte CLint,Rat hepatocyte Clint,32 µL/min/1e6 cells
same,Descriptors (10 µM) 1 h,adult S. mansoni,none
same,Severity Scores (10 μM) 1 h,adult S. mansoni,0
same,Severity Scores (10 μM) 5 h,adult S. mansoni,4
same,Severity Scores (10 μM) 24 h,adult S. mansoni,4
same,Severity Scores (10 μM) 48 h,adult S. mansoni,4
same,logD,[2],2.6
CCN1CCCN(c2ncc(-c3ccc4c(Nc5cnccn5)ccnc4c3C)cn2)CC1 [9c],fraction unbound,[4],0.12
same,hepatocyte CLint,Rat hepatocyte Clint,21 µL/min/1e6 cells
same,Descriptors (10 µM) 1 h,adult S. mansoni,none
same,Severity Scores (10 μM) 1 h,adult S. mansoni,0
same,Descriptors (10 µM) 5 h,adult S. mansoni,none
same,Severity Scores (10 μM) 5 h,adult S. mansoni,0
same,Descriptors (10 µM) 24 h,adult S. mansoni,none
same,Severity Scores (10 μM) 24 h,adult S. mansoni,0
same,Descriptors (10 µM) 48 h,adult S. mansoni,none
same,Severity Scores (10 μM) 48 h,adult S. mansoni,0
same,bioactivity against adult S. mansoni,adult S. mansoni,no bioactivity
